# Measurements reported in patent US12404301B2, “Polypeptide having anti-aging activity, and application thereof” (NANJING ANJI BIOLOGICAL TECHNOLOGY CO., LTD., priority 2020, dated 2025).
# System: Wild-type Caenorhabditis elegans
# Assay: Experiment on the lifespan of Caenorhabditis elegans
# Assay type: in vivo
# Conditions: 10 nM
# Method: Synchronization of Caenorhabditis elegans: The NGM plate with a moderate nematode density was selected. The larvae at the L4 stage were picked with a pick needle for about 20 in total and transferred into the blank NGM plate. After they developed into adults and laid the first batch of eggs, all the adults were picked out. About 12 hours later, the eggs hatched into larvae, to obtain the synchronized larvae at the L1 stage. Preliminary preparation for the experiment on the lifespan of Caenorhabditis elegans: The NGM was washed with 1 mL of M9 buffer. The resulting buffer containing the larvae at the L1 stage was collected into an EP tube, placed in a chromatographic cabinet at 4° C. for 5 min, and centrifuged at 1500× g/4° C. for 3 min. The supernatant was removed. After 100 μL of buffer was resuspended, the nematodes were counted under a microscope, and the nematodes were diluted to a concentration of 30 worms/10 μL. 10 μL of diluted nematodes were added into the NGM plate inoculated with E. coli OP50, and the nematodes were counted under the microscope to ensure that there were about 30 nematodes. The NGM plate was placed in a constant temperature incubator to culture. Experiment on the lifespan of Caenorhabditis elegans: After the nematodes at the L1 stage developed to the L4 stage, 100 μL of 15.6 μg/mL 5-FUDR was added for inhibition of Caenorhabditis elegans from oviposition. After the nematodes developed to adults, the dosing started, and the nematodes were divided into a control group and a 10 nM dose group, which was recorded as day 1 of the lifespan experiment. After that, the dosing was carried out every day, the numbers of nematodes that survived, died, and unexpectedly died were observed and recorded every day, and the status of the nematodes was observed and recorded, until the last nematode died. […] The dead nematodes need to be picked out of the plate. The E. coli OP50 needs to be added in time when exhausted. Kaplan-Meier statistical analysis was carried out on the data, and the data results were expressed as Median±SE. Compared with the control group, *P<0.05 represents a significant difference, and **P<0.01 represents a very significant difference.
row,Substance,longest lifespan of the nematodes [days]
1,PPTTKFAA [WD1],31
2,TTKFAA [WD3],33
3,PTTKFAA [WD2],32

# Same assay, conditions: 10 nM; Kaplan-Meier, Median ± SE
row,Substance,Median survival time (time to half death) [days]
1,PPTTKFAA [WD1],21.000
2,TTKFAA [WD3],21.000
3,PTTKFAA [WD2],21.000

# Same assay, conditions: 10 nM; in words
Substance,day when death occurs compared with the control group,time to half death compared with the control group (significance)
PPTTKFAA [WD1],no significant difference,does not have a significant difference
TTKFAA [WD3],no significant difference,does not have a significant difference
PTTKFAA [WD2],no significant difference,does not have a significant difference

# Same assay, conditions: 10 nM; vs control group
Substance,"longest lifespan, days longer than that of the control group [days]",time to half death longer than in the control group [days]
PPTTKFAA [WD1],3,1
TTKFAA [WD3],5,1
PTTKFAA [WD2],4,1

# Same assay, conditions: day 0, 10 nM
row,Substance,Number of remaining nematodes
1,PPTTKFAA [WD1],29
2,TTKFAA [WD3],28
3,PTTKFAA [WD2],26

# Same assay, conditions: day 1, 10 nM
row,Substance,Number of remaining nematodes
1,PPTTKFAA [WD1],29
2,TTKFAA [WD3],28
3,PTTKFAA [WD2],26

# Same assay, conditions: day 2, 10 nM
row,Substance,Number of remaining nematodes
1,PPTTKFAA [WD1],29
2,TTKFAA [WD3],28
3,PTTKFAA [WD2],26

# Same assay, conditions: day 3, 10 nM
row,Substance,Number of remaining nematodes
1,PPTTKFAA [WD1],29
2,TTKFAA [WD3],28
3,PTTKFAA [WD2],26

# Same assay, conditions: day 4, 10 nM
row,Substance,Number of remaining nematodes
1,PPTTKFAA [WD1],29
2,TTKFAA [WD3],28
3,PTTKFAA [WD2],26

# Same assay, conditions: day 5, 10 nM
row,Substance,Number of remaining nematodes
1,PPTTKFAA [WD1],29
2,TTKFAA [WD3],28
3,PTTKFAA [WD2],26

# Same assay, conditions: day 6, 10 nM
row,Substance,Number of remaining nematodes
1,PPTTKFAA [WD1],29
2,TTKFAA [WD3],28
3,PTTKFAA [WD2],26

# Same assay, conditions: day 7, 10 nM
row,Substance,Number of remaining nematodes
1,PPTTKFAA [WD1],29
2,TTKFAA [WD3],28
3,PTTKFAA [WD2],26

# Same assay, conditions: day 8, 10 nM
row,Substance,Number of remaining nematodes
1,PPTTKFAA [WD1],29
2,TTKFAA [WD3],28
3,PTTKFAA [WD2],26

# Same assay, conditions: day 9, 10 nM
row,Substance,Number of remaining nematodes
1,PPTTKFAA [WD1],29
2,TTKFAA [WD3],28
3,PTTKFAA [WD2],26

# Same assay, conditions: day 10, 10 nM
row,Substance,Number of remaining nematodes
1,PPTTKFAA [WD1],28
2,TTKFAA [WD3],28
3,PTTKFAA [WD2],26

# Same assay, conditions: day 11, 10 nM
row,Substance,Number of remaining nematodes
1,PPTTKFAA [WD1],27
2,TTKFAA [WD3],27
3,PTTKFAA [WD2],25

# Same assay, conditions: day 12, 10 nM
row,Substance,Number of remaining nematodes
1,PPTTKFAA [WD1],24
2,TTKFAA [WD3],27
3,PTTKFAA [WD2],23

# Same assay, conditions: day 13, 10 nM
row,Substance,Number of remaining nematodes
1,PPTTKFAA [WD1],24
2,TTKFAA [WD3],27
3,PTTKFAA [WD2],23

# Same assay, conditions: day 14, 10 nM
row,Substance,Number of remaining nematodes
1,PPTTKFAA [WD1],22
2,TTKFAA [WD3],22
3,PTTKFAA [WD2],22

# Same assay, conditions: day 15, 10 nM
row,Substance,Number of remaining nematodes
1,PPTTKFAA [WD1],20
2,TTKFAA [WD3],20
3,PTTKFAA [WD2],21

# Same assay, conditions: day 16, 10 nM
row,Substance,Number of remaining nematodes
1,PPTTKFAA [WD1],20
2,TTKFAA [WD3],20
3,PTTKFAA [WD2],21

# Same assay, conditions: day 17, 10 nM
row,Substance,Number of remaining nematodes
1,PPTTKFAA [WD1],19
2,TTKFAA [WD3],20
3,PTTKFAA [WD2],20

# Same assay, conditions: day 18, 10 nM
row,Substance,Number of remaining nematodes
1,PPTTKFAA [WD1],19
2,TTKFAA [WD3],20
3,PTTKFAA [WD2],18

# Same assay, conditions: day 19, 10 nM
row,Substance,Number of remaining nematodes
1,PPTTKFAA [WD1],16
2,TTKFAA [WD3],17
3,PTTKFAA [WD2],16

# Same assay, conditions: day 20, 10 nM
row,Substance,Number of remaining nematodes
1,PPTTKFAA [WD1],15
2,TTKFAA [WD3],15
3,PTTKFAA [WD2],14

# Same assay, conditions: day 21, 10 nM
row,Substance,Number of remaining nematodes
1,PPTTKFAA [WD1],14
2,TTKFAA [WD3],14
3,PTTKFAA [WD2],13

# Same assay, conditions: day 22, 10 nM
row,Substance,Number of remaining nematodes
1,PPTTKFAA [WD1],12
2,TTKFAA [WD3],11
3,PTTKFAA [WD2],11

# Same assay, conditions: day 23, 10 nM
row,Substance,Number of remaining nematodes
1,PPTTKFAA [WD1],10
2,TTKFAA [WD3],10
3,PTTKFAA [WD2],9

# Same assay, conditions: day 24, 10 nM
row,Substance,Number of remaining nematodes
1,PPTTKFAA [WD1],9
2,TTKFAA [WD3],9
3,PTTKFAA [WD2],9

# Same assay, conditions: day 25, 10 nM
row,Substance,Number of remaining nematodes
1,PPTTKFAA [WD1],8
2,TTKFAA [WD3],6
3,PTTKFAA [WD2],7

# Same assay, conditions: day 26, 10 nM
row,Substance,Number of remaining nematodes
1,PPTTKFAA [WD1],6
2,TTKFAA [WD3],6
3,PTTKFAA [WD2],7

# Same assay, conditions: day 27, 10 nM
row,Substance,Number of remaining nematodes
1,PPTTKFAA [WD1],5
2,TTKFAA [WD3],5
3,PTTKFAA [WD2],5

# Same assay, conditions: day 28, 10 nM
row,Substance,Number of remaining nematodes
1,PPTTKFAA [WD1],4
2,TTKFAA [WD3],4
3,PTTKFAA [WD2],3

# Same assay, conditions: day 29, 10 nM
row,Substance,Number of remaining nematodes
1,PPTTKFAA [WD1],1
2,TTKFAA [WD3],2
3,PTTKFAA [WD2],2

# Same assay, conditions: day 30, 10 nM
row,Substance,Number of remaining nematodes
1,PPTTKFAA [WD1],1
2,TTKFAA [WD3],1
3,PTTKFAA [WD2],1

# Same assay, conditions: day 31, 10 nM
row,Substance,Number of remaining nematodes
1,PPTTKFAA [WD1],1
2,TTKFAA [WD3],1
3,PTTKFAA [WD2],1

# Same assay, conditions: day 32, 10 nM
row,Substance,Number of remaining nematodes
1,PPTTKFAA [WD1],0
2,TTKFAA [WD3],1
3,PTTKFAA [WD2],1

# Same assay, conditions: day 33, 10 nM
row,Substance,Number of remaining nematodes
1,PPTTKFAA [WD1],0
2,TTKFAA [WD3],1
3,PTTKFAA [WD2],0

# Same assay, conditions: day 34, 10 nM
row,Substance,Number of remaining nematodes
1,PPTTKFAA [WD1],0
2,TTKFAA [WD3],0
3,PTTKFAA [WD2],0

# Same assay, conditions: day 35, 10 nM
row,Substance,Number of remaining nematodes
1,PPTTKFAA [WD1],0
2,TTKFAA [WD3],0
3,PTTKFAA [WD2],0

# Same assay, conditions: day 36, 10 nM
row,Substance,Number of remaining nematodes
1,PPTTKFAA [WD1],0
2,TTKFAA [WD3],0
3,PTTKFAA [WD2],0

# Same assay, conditions: day 37, 10 nM
row,Substance,Number of remaining nematodes
1,PPTTKFAA [WD1],0
2,TTKFAA [WD3],0
3,PTTKFAA [WD2],0

# Same assay, conditions: day 38, 10 nM
row,Substance,Number of remaining nematodes
1,PPTTKFAA [WD1],0
2,TTKFAA [WD3],0
3,PTTKFAA [WD2],0
